The source of these data is patent publication US20260138969A1 (Korea Research Institute of Chemical Technology, priority 2023, published 2026).

As a reminder, the IC50 is the concentration that inhibits the measured activity by half. By remaining activity is commonly meant the share of the control activity or signal that is left under treatment.

The target in the first test is T1, recombinant human ASK1 protein (Homo sapiens, UniProt Q99683).
T1 sequence (Q99683 1-1374): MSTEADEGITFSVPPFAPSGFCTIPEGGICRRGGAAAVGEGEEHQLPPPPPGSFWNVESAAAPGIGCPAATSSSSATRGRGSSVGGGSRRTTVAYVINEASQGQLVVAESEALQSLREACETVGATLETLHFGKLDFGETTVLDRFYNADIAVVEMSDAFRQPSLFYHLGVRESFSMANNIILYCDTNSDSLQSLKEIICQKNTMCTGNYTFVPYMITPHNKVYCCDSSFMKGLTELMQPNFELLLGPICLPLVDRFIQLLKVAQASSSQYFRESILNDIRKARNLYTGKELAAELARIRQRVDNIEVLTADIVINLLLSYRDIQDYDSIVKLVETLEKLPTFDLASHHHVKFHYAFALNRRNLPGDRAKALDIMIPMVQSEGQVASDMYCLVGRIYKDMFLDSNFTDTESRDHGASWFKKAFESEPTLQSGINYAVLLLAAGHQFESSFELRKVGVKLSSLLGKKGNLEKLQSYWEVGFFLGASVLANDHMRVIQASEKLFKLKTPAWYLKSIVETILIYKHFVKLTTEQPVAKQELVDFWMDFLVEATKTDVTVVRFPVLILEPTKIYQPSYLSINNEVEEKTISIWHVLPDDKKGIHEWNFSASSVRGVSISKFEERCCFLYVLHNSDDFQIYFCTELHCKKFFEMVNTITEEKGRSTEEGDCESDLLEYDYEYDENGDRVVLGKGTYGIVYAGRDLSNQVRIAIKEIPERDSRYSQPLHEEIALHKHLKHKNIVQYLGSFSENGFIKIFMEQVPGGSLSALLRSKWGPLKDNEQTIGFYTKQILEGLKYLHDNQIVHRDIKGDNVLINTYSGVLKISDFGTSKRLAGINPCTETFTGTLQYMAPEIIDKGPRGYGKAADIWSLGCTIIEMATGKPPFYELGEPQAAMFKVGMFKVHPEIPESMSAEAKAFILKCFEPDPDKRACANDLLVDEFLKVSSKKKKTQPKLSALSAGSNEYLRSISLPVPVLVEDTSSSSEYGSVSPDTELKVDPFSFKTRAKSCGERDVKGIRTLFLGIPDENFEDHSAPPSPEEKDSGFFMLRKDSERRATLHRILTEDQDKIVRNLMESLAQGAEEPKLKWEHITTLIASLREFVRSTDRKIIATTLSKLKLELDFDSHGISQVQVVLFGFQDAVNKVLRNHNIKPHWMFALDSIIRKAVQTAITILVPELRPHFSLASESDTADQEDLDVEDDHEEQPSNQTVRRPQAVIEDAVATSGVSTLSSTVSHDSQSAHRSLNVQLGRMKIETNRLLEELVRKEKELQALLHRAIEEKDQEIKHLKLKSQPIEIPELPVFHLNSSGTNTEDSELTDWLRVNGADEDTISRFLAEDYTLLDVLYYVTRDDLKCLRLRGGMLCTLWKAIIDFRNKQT
The test is described as follows: Evaluation of ASK1 inhibition activity ([gamma-33P]-ATP, scintillation counting).
Conditions: not given
Type of test: biochemical. As for the experimental part: The recombinant human ASK1 protein was initiated by adding a mixture of Mg/ATP to the reaction solution (8 mM MOPS PH 7.0, 0.2 mM EDTA, 0.33 mg/mL myelin basic protein, 10 mM Mg Acetate and [gamma-33P]-ATP), and the reaction was terminated by adding 0.5% phosphoric acid after 40 min at room temperature.
`Cc1cc(F)c(C(=O)Nc2cccc(-n3nnc4ccccc43)n2)cc1-n1cnc(C2CC2)c1` [Example 1, N-(6-(1H-benzo[d][1,2,3]triazole-1-yl)pyridine-2-yl)-5-(4-cyclopropyl-1H-imidazole-1-yl)-2-fluoro-4-methylbenzamide]: the concentration for half-maximal inhibition (IC50) amounted to 235 nM.

Still in this test, the particulars now being: 0.5 uM; activity of group without compound set at 100%; read-out: Remaining kinase activity (%) at 0.5 uM.
For the compound `Cc1cc(OC(C)C)c(C(=O)Nc2cccc(-n3nnc4c3CCCC4)n2)cc1-n1cnc(C2CC2)c1` [Example 13, 5-(4-cyclopropyl-1H-imidazol-1-yl)-2-isopropoxy-4-methyl-N-(6-(4,5,6,7-tetrahydro-1H-benzo[d][1,2,3]triazol-1-yl)pyridin-2-yl)benzamide], the remaining activity at 0.5 µM was 9%. Take `Cc1cc(F)c(C(=O)Nc2cccc(-n3nnc4ccccc43)n2)cc1-n1cnc(C2CC2)c1` [Example 1, N-(6-(1H-benzo[d][1,2,3]triazole-1-yl)pyridine-2-yl)-5-(4-cyclopropyl-1H-imidazole-1-yl)-2-fluoro-4-methylbenzamide]: the remaining activity at 0.5 µM is 14%.

With `Cc1cc(OC(F)F)c(C(=O)Nc2cccc(-n3nnc4c3CCCC4)n2)cc1-n1cnc(C2CC2)c1` [Example 15, 5-(4-cyclopropyl-1H-imidazol-1-yl)-2-(difluoromethoxy)-4-methyl-N-(6-(4,5,6,7-tetrahydro-1H-benzo[d][1,2,3]triazol-1-yl)pyridin-2-yl)benzamide], the remaining activity at 0.5 µM came to 8%.

`O=C(Nc1cccc(-n2nnc3c2CCC3)n1)c1cc(-n2cnc(C3CC3)c2)ccc1OC1CC1` [Example 22, 2-cyclopropoxy-5-(4-cyclopropyl-1H-imidazol-1-yl)-N-(6-(5,6-dihydrocyclopenta[d][1,2,3]triazol-1 (4H)-yl)pyridin-2-yl)benzamide]: the remaining activity at 0.5 µM turned out to be 24%. On the same count and under the same terms, to `CCOc1ccc(-n2cnc(C3CC3)c2)cc1C(=O)Nc1cccc(-n2nnc3c2CCC3)n1` [Example 16, 5-(4-cyclopropyl-1H-imidazol-1-yl)-N-(6-(5,6-dihydrocyclopenta[d][1,2,3]triazol-1 (4H)-yl)pyridin-2-yl)-2-ethoxybenzamide] belongs 11%; to `COc1cc(C)c(-n2cnc(C3CC3)c2)cc1C(=O)Nc1cccc(-n2nnc3c2CCC3)n1` [Example 8, 5-(4-cyclopropyl-1H-imidazol-1-yl)-N-(6-(5,6-dihydrocyclopenta[d][1,2,3]triazol-1 (4H)-yl)pyridin-2-yl)-2-methoxy-4-methylbenzamide], 0%; to `COc1ccc(-n2cnc(C3CC3)c2)cc1C(=O)Nc1cccc(-n2nnc3c2CCC3)n1` [Example 6, 5-(4-cyclopropyl-1H-imidazol-1-yl)-N-(6-(5,6-dihydrocyclopenta[d][1,2,3]triazol-1 (4H)-yl)pyridin-2-yl)-2-methoxybenzamide], 0%. For the compound `CCOc1ccc(-n2cnc(C3CC3)c2)cc1C(=O)Nc1cccc(-n2nnc3c2CCCC3)n1` [Example 17, 5-(4-cyclopropyl-1H-imidazol-1-yl)-2-ethoxy-N-(6-(4,5,6,7-tetrahydro-1H-benzo[d][1,2,3]triazol-1-yl)pyridin-2-yl)benzamide], the remaining activity at 0.5 µM is 2%. Consider `CC(C)Oc1ccc(-n2cnc(C3CC3)c2)cc1C(=O)Nc1cccc(-n2nnc3c2CCC3)n1` [Example 18, 5-(4-cyclopropyl-1H-imidazol-1-yl)-N-(6-(5,6-dihydrocyclopenta[d][1,2,3]triazol-1 (4H)-yl)pyridin-2-yl)-2-isopropoxybenzamide], for which the remaining activity at 0.5 µM worked out at 11%.

With `O=C(Nc1cccc(-n2nnc3c2CCCC3)n1)c1cc(-n2cnc(C3CC3)c2)ccc1OC(F)(F)F` [Example 25, 5-(4-cyclopropyl-1H-imidazol-1-yl)-N-(6-(4,5,6,7-tetrahydro-1H-benzo[d][1,2,3]triazol-1-yl)pyridin-2-yl)-2-(trifluoromethoxy)benzamide], the remaining activity at 0.5 µM turned out to be 14%. Same read-out and setting: under `CCOc1cc(C)c(-n2cnc(C3CC3)c2)cc1C(=O)Nc1cccc(-n2nnc3c2CCC3)n1` [Example 10, 5-(4-cyclopropyl-1H-imidazol-1-yl)-N-(6-(5,6-dihydrocyclopenta[d][1,2,3]triazol-1 (4H)-yl)pyridin-2-yl)-2-ethoxy-4-methylbenzamide] stands 14%; under `O=C(Nc1cccc(-n2nnc3c2CCCC3)n1)c1cc(-n2cnc(C3CC3)c2)ccc1OCC(F)(F)F` [Example 21, 5-(4-cyclopropyl-1H-imidazol-1-yl)-N-(6-(4,5,6,7-tetrahydro-1H-benzo[d][1,2,3]triazol-1-yl)pyridin-2-yl)-2-(2,2,2-trifluoroethoxy)benzamide], 16%.

Another test relates to Reserpine-induced fibromyalgia rat model. Briefly: Reserpine-induced fibromyalgia rat model: pain (von Frey test). Type of test: in vivo. The following applies: gabapentin 50 mg/kg IP QD; Example 2 3, 10, 30 mg/kg PO QD; days 1, 2, 4, 6. Here is the method:
Reserpine-induced fibromyalgia model generation and drug administration were carried out on 6-week-old male SD rats divided into 6 groups as shown in Table 15 below: control group (G1), reserpine+delivery (G2), reserpine+gabapentin 50 mg/kg (G3), reserpine+Example 2 3 mg/kg (G4), 10 mg/kg (G5), and 30 mg/kg (G6). To create a rat fibromyalgia model, reserpine (Sigma-aldrich, 1 mg/kg) dissolved in 0.5% acetic acid was administered subcutaneously once for 3 days from 3 days before the start of the experiment. Beginning on Day 1, the once-daily (QD) delivery body, gabapentin, and embodiment 2 were administered intraperitoneally (IP) or orally (PO) 2 hours before the experiment was performed.
The right hind foot tactile response test (von Frey test) was performed 5 times (before the fibromyalgia model, and on the 1st, 2nd, 4th and 6th days after the model was generated). Before all behavioral tests, rats were accustomed to the environment for 30 minutes, and all experimenters performing behavioral tests were made blind to drug administration information. Before model generation, baseline measurements were performed by performing the von Frey test on all rats. The rat was placed on a wired mesh and placed in a transparent plastic box (20×20×14 cm), and the foot withdrawal threshold was measured by applying a von Frey filament (ascending weight: 0.4, 0.6, 1.4, 2, 4, 6, 8, and 15 g, North Coast) to the middle of the right hind foot to assess foot allodynia.
On to `NCC1(CC(=O)O)CCCCC1` [Gabapentin, reference compound], for which the “sensitivity (foot withdrawal threshold, von Frey test)” value is “gradually improved over time”.

For the next test, the system named is MPTP-induced PD mouse model. Briefly: MPTP-induced PD mouse model: TH staining of striatum and substantia nigra. Type of test: in vivo. The note with it: PO QD Day 1-7; Nilotinib 40 mg/kg, Example 3 2/10/50 mg/kg, Example 2 50 mg/kg; vs MPTP group G2. Here is the method: Mice at 7 weeks of age were divided into 7 groups as shown in Table 9 below to generate an acute MPTP model and proceed with drug administration: control group+vehicle (G1), MPTP+vehicle (G2), MPTP+Nilotinib 40 mg/kg (G3), MPTP+Example 3 2 mg/kg (G4), MPTP+Example 3 10 mg/kg (G5), MPTP+Example 3 50 mg/kg (G6), and MPTP+Example 2 50 mg/kg (G7). The test drug was administered orally (PO) at 10 ml/kg once daily (QD) from Day 1 to Day 7. The acute MPTP model will be performed at 2-hour intervals in all groups except the control group. […] was administered as intraperitoneal (IP) injection for 4 doses. The control group was given the same amount of 0.9% saline. The Pole test was performed on day 4 (after training on day 2 and day 3). On day 7, all mice were euthanized, and their brains were harvested.
Mice were euthanized with Zoletil administration for collection of tissue samples for staining and analysis of histological sections. Blood was collected from the heart of the mouse and then the residual blood was perfused with phosphate-buffered saline (PBS). For half of the mice (n=6/group), the brain was incised into the striatum, substantia nigra, and the rest of the brain, flash-frozen, and stored at −80° C. The remaining mice (n=6/group) had their brains isolated and immobilized in 4% paraformaldehyde for 24 hours at 4° C., followed by 30% sucrose in phosphate-buffered saline (PBS) containing 0.02% sodium azide and stored at 4° C. for 3 days. Immunohistochemical sections were performed on brain samples embedded with optimal cutting temperature (OCT) compounds. Samples were sectioned to a thickness of 20 μm using Leica CM1950 (Leica Microsystems, Germany) and stored at 4° C. in a preservation solution until staining with antibodies.
After staining the striatum and substantia nigra of the brain and mounting them on microscopic slides, the slides were washed with PBS containing 0.3% Triton X-100 and peroxidase block for 15 min at room temperature. The slides were washed three times with PBS containing 0.3% Triton X-100 and then blocked at RT (room temperature) for 1 hour in a solution containing PBS, 5% normal goat serum, and 0.3% Triton X-100. Tyrosine hydroxylase antibody was diluted at 1:1000 and incubated overnight at 4° C. The slides were washed with PBS solution and incubated for 1 h at RT with secondary antibody. The slides were washed with PBS solution and the sections were placed in the solution to proceed with the DAB (diaminobenzidine) reaction.
The DAB response was monitored under a microscope for 2 to 3 minutes, and the slides were washed with PBS to stop the DAB response, dehydrated, and mounted using xylene. An Olympus microscope (Olympus, SZ61, BX51) was used to visualize TH stained images. The optical density (OD) value of positive TH staining was measured in the striatum and substantia nigra and analyzed using Image J software.
`Cc1cn(-c2cc(NC(=O)c3ccc(C)c(Nc4nccc(-c5cccnc5)n4)c3)cc(C(F)(F)F)c2)cn1` [Nilotinib, reference compound]: the “TH levels in striatum” value is given as “significantly higher than those in G2”.
